A word on the pKd: it is the Kd on a negative log10 scale, so that one unit is a factor of ten. The low end stands for a large Kd, the high end for a small Kd.

From publication PMC6028453, “BrlR from Pseudomonas aeruginosa is a receptor for both cyclic di-GMP and pyocyanin” (Nature Communications, 2018) come the findings set out here.

pKd: −log10 of the molar value.

Experiment [1] addresses T1, BrlR (Pseudomonas aeruginosa, UniProt Q9HUT5).
T1 construct: His6-SUMO (N, cleaved yes); made in house; host or cells: E. coli BL21 DE3
Description: FP competition experiment, wild-type BrlR. It is filed as binding. To be noted: 320 μM BrlR, 1 nM F-c-di-GMP, 760 μM c-di-GMP added. How it is done: Supplementary Figure 4: Fluorescence polarization competition experiment. Wt BrlR was added to a final concentration of 320 μM in the reaction buffer containing 1 nM F-c-di-GMP, and the binding […]
curve was recorded. […] After the addition of
760 μM c-di-GMP (indicated with an arrow in the figure), an apparent competition with the fluoresceinated c-di-GMP could be observed by the remarkable decrease in millipolarization units.
(1 picture or pasted object on this page, not shown here)

For experiment [2], the target named is T1, BrlR. Description: Surface plasmon resonance (SPR) analysis. To be noted: SPR, first submitted version of the manuscript (quoted by reviewer); authors later call it a very weak artificial affinity. It is filed as binding. How it is done:
The binding affinity of diverse toxic compounds for BrlR were investigated by SPR using a BIAcore-T200 apparatus (GE Healthcare). The ligand, BrlR (20 μM in 10 mM sodium acetate, pH 4.5), was immobilized on an activated CM5 sensor chip by amine coupling (BIAcore) with 4400 response units (RU), and the unreacted sites were blocked with 1.0 M ethanolamine–HCl (pH 8.5). Steady-state binding analysis was performed with injections of different molecules at different concentrations over the immobilized BrlR surface at a flow rate of 20 μL min^−1 at 25 °C. Association was measured for 180 s, followed by 120 s of dissociation in running buffer (20 mM Hepes pH 7.5, 150 mM NaCl). The sensorgrams for specific interactions were obtained by subtracting the reference unimmobilized flow cell response from that of the sample. Since BrlR only has one binding site for pyocyanin or other toxic compounds (Fig. 5a–f), the kinetic analysis of the sensorgrams from analyte interaction with the immobilized BrlR was performed by fitting the binding curves to a 1:1 binding model. To determine the steady state KD values, equilibrium responses were plotted against analyte concentrations, and the resulting curves were fitted to the steady state model in the BIAevaluation software package, version 3.0 (GE Healthcare).
(In SPR one partner is held on a chip, and binding of the other changes the refractive index at the surface.)

Another experiment has as its target T2, C2E mut1 DNA binding (Pseudomonas aeruginosa, UniProt Q9HUT5, D35A/R31A/Y270A/Y40A).
T2 construct: His6-SUMO (N, cleaved yes); made in house; host or cells: E. coli BL21 DE3
Nature of the experiment: EMSA, C2E mut1 with PbrlR DNA. It is filed as biochemical. How it is done:
A 6-carboxy-fluorescein (FAM)-labeled 36-bp brlR promoter DNA (PbrlR) or 80-bp mexA/mexE promoter DNA (PmexA/PmexE) probes (~0.375 pmol), BrlR protein and varying amounts of inducers were incubated in binding buffer (10 mM Tris HCl [pH 7.4], 50 mM KCl, 1 mM DTT, […] and 5 ng/mL poly [dI-dC]) for 60 min at 25 °C. Finally, glycerol was added to a concentration of 6.5%. The samples were subjected to a 5% polyacrylamide gel electrophoresis and run in 0.5 × Tris-borate-EDTA buffer at 80 V for 1 h at room temperature. Imaging and data analyses were performed using a Typhoon Scanner (GE Healthcare) and Imagequant software. The probes used are listed in Supplementary Table 1.
Background: Mobility shift assays separate free from complexed probe on a gel.

T1 sequence (Q9HUT5 whole entry): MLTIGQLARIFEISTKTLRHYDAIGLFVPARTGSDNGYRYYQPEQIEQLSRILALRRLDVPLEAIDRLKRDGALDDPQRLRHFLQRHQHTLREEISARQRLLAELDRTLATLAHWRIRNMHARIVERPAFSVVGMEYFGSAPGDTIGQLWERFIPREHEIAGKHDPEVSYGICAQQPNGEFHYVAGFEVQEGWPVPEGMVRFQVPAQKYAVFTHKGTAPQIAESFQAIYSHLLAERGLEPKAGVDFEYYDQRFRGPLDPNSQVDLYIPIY
T2 sequence (Q9HUT5 whole entry R31A/D35A/Y40A/Y270A): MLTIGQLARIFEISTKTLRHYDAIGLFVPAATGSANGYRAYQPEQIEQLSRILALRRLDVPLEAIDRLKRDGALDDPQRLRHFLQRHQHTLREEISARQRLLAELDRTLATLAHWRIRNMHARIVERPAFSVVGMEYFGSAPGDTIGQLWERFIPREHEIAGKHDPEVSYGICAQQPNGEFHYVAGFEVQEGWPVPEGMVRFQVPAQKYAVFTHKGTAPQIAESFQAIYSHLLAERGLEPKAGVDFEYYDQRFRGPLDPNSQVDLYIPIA

On to `Nc1nc2c(ncn2[C@@H]2O[C@@H]3COP(=O)(O)O[C@H]4[C@@H](O)[C@H](n5cnc6c(=O)[nH]c(N)nc65)O[C@@H]4COP(=O)(O)O[C@H]3[C@H]2O)c(=O)[nH]1` [c-di-GMP, cyclic diguanylate monophosphate], for which the “competition with F-c-di-GMP binding to BrlR” value at BrlR [1] was “outcompeted specifically”. Moreover, the negative-log Kd (pKd) on BrlR [2] was 2.57. Besides, on C2E mut1 DNA binding, the “BrlR-DNA complex in the presence vs absence of c-di-GMP” value came to 1.5 fold.
